{"source": "patent US7875621B2", "about": "“Substituted 2-alkyl quinazolinone derivatives as PARP inhibitors” (Janssen Pharmaceutica NV, priority 2004, dated 2011)", "note": "pIC50: −log10 of the molar value."}
{"target": "T1, TANK-2 enzyme (Homo sapiens, UniProt Q9H2K2)", "T1 construct": "inferred from capture on Ni-coated flash plate; made in house", "T1 sequence (Q9H2K2 1-1166)": "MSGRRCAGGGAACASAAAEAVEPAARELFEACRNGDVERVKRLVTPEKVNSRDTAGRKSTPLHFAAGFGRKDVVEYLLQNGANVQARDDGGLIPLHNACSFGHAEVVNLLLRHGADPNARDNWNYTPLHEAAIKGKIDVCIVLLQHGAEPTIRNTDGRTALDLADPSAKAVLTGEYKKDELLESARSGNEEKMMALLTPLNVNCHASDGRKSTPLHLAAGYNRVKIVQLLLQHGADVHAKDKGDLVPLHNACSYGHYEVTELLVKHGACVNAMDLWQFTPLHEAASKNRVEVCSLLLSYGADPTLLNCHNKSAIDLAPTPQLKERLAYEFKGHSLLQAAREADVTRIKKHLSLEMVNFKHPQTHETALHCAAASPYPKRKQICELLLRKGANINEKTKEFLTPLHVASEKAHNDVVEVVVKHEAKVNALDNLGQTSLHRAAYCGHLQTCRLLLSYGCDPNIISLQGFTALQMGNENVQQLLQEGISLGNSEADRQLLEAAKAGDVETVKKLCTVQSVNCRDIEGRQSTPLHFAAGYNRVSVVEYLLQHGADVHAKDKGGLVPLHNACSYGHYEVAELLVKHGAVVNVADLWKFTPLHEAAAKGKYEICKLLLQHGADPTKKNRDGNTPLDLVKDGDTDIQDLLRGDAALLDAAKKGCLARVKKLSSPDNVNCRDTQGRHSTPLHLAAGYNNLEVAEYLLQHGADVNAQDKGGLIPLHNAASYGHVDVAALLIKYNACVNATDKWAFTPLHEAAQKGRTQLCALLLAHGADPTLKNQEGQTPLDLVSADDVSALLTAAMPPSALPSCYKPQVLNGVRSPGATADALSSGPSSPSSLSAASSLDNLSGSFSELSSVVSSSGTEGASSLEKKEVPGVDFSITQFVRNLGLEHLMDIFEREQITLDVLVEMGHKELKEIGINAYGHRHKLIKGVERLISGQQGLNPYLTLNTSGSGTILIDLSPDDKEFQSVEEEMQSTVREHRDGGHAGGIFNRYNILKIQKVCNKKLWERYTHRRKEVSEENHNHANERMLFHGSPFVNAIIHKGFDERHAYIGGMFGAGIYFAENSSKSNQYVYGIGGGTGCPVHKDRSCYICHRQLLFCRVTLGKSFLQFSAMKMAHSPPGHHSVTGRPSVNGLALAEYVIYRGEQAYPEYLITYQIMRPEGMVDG", "experiment": "In vitro scintillation proximity assay (SPA) for TANK-2 inhibitory activity", "type": "biochemical", "conditions": "not given", "description": "(§1) In Vitro Scintillation Proximity Assay (SPA) for TANK-2 Inhibitory Activity\n(§2) Compounds of the present invention were tested in an in vitro assay based on SPA technology with Ni Flash plates (96 or 384 well).\n(§3) In principle, the assay relies upon SPA technology for the detection of auto-poly(ADP-ribosyl)ation of TANK-2 protein using [^3H]-nicotinamide adenine dinucleotide ([^3H]-NAD^+) as ADP-ribosyl donor.\n(§4) A stock solution of [^3H]-NAD^+/NAD was made by adding 64.6 μl of [^3H]-NAD^+ (0.1 mCi/ml, supplier: Perkin Elmer) and 46.7 μl NAD-stock (10.7 mM, stored at −20° C., supplier Roche) to 1888.7 μl assay buffer (60 mM Tris/HCl, pH 7.4; 0.9 mM DTT; 6 mM MgCl2). The TANK-2 enzyme was produced as described in EP1238063. 60 μl of assay buffer, together with 1 μl of compound in DMSO, 20 μl of [^3H]-NAD^+/NAD and 20 μl of TANK-2 enzyme (final concentration 6 μg/ml) was added per well into a 96-well Ni-coated flash plate (Perkin Elmer). After incubation of the mixture for 120 min. at room temperature, the reaction was terminated by adding 60 μl of stopsolution (42.6 mg NAD in 6 ml H2O). The plates were covered with a plate sealer and placed in a TopCountNXT™ (Packard) for scintillation counting. Values were expressed as counts per minute (cpm). For each experiment, controls (containing TANK-2 enzyme and DMSO without compound), a blank incubation (containing DMSO but no TANK-2 enzyme or compound) and samples (containing TANK-2 enzyme and compound dissolved in DMSO) were run in parallel. All compounds tested were dissolved and eventually further diluted in DMSO. In first instance, compounds were tested at a concentration of 10^−5M. […] In each test, the blank value was subtracted from both the control and the sample values. The control sample represented maximal TANK-2 enzyme activity. For each sample, the amount of cpm was expressed as a percentage of the mean cpm value of the controls. When appropriate, IC50-values (concentration of the drug, needed to reduce the TANK-2 enzyme activity to 50% of the control) were computed using linear interpolation between the experimental points just above and below the 50% level. Herein the effects of test compounds are expressed as pIC50 (the negative log value of the IC50-value). As reference compounds, 3-aminobenzamide and 4-amino-1,8-naphtalimide were included to validate the SPA assay. Herein the assay was described using 96-well plates. In the assay using 384-well plates the same final concentrations were used and volumes were adapted."}
{"smiles": "O=C1NC(CCN2CCC(n3c(=O)[nH]c4ccccc43)CC2)Nc2ccccc21", "note": "(stereo not drawn) [Compound 13]", "pIC50": 6.03}
{"target": "T1, TANK-2 enzyme", "experiment": "In vitro scintillation proximity assay (SPA) for TANK-2 inhibitory activity", "type": "biochemical", "conditions": "auto-poly(ADP-ribosyl)ation, [3H]-NAD+, 96- or 384-well Ni Flash plates; read-out: in vitro SPA TANK-2 pIC50 (converted)", "description": "as §1, §2, §3, §4", "units": {"IC50": "µM"}}
{"smiles": "O=C1NCN(c2ccccc2)C12CCN(CCCc1nc3ccccc3c(=O)[nH]1)CC2", "note": "[Compound 2]", "IC50": "> 10"}
{"smiles": "O=C(CC1CCN(CCc2nc3ccccc3c(=O)[nH]2)CC1)c1ccc(F)cc1", "note": "[Compound 3]", "IC50": 2.48}
{"smiles": "NC(=O)C1(c2ccccc2)CCN(CCCc2nc3ccccc3c(=O)[nH]2)CC1", "note": "[Compound 4]", "IC50": "> 10"}
{"smiles": "NC(=O)C1(c2ccccc2)CCN(CCCC2NC(=O)c3ccccc3N2)CC1", "note": "(stereo not drawn) [Compound 5]", "IC50": "> 10"}
{"smiles": "O=C1NC(CCN2CCC3(CC2)C(=O)NCN3c2ccccc2)Nc2ccccc21", "note": "(stereo not drawn) [Compound 6]", "IC50": 7.43}
{"smiles": "O=C1NC(CCCN2CCC(n3c(=O)[nH]c4ccccc43)CC2)Nc2ccccc21", "note": "(stereo not drawn) [Compound 7]", "IC50": "< 10"}
{"smiles": "O=C(NC1CCN(CCCC2NC(=O)c3ccccc3N2)CC1)c1ccccc1", "note": "(stereo not drawn) [Compound 8]", "IC50": "> 10"}
{"smiles": "O=C(c1ccc(F)cc1)C1CCN(CCc2nc3ccccc3c(=O)[nH]2)CC1", "note": "[Compound 9]", "IC50": "> 10"}
{"smiles": "NC(=O)C1(N2CCOCC2)CCN(CCCc2nc3ccccc3c(=O)[nH]2)CC1", "note": "[Compound 11]", "IC50": "> 10"}
{"smiles": "O=C(NC1CCN(CCCc2nc3ccccc3c(=O)[nH]2)CC1)c1ccccc1", "note": "[Compound 12]", "IC50": "> 10"}
{"smiles": "O=C(c1ccc(F)cc1)C1CCN(CCCc2nc3ccccc3c(=O)[nH]2)CC1", "note": "[Compound 14]", "IC50": "> 10"}
